# Laboratory results: patent US5661130A, “Absorption enhancers for drug administration” (The UAB Research Foundation, priority 1993, dated 1997)
# Legend:
# [1] = system: intact mouse fibrosarcoma cells; conditions: LeGrue et al.; cited from earlier work
# [2] = system: monocytes or endothelial cells; conditions: DiCorleto et al.; cited from earlier work
# [3] = system: normal rats with blood glucose elevated by xylazine/ketamine anesthesia; assay: Hypoglycemic effect of insulin eye drops with absorption enhancer in anesthetized rats; type: in vivo, rat
# Method: This mimics the hyperglycemic state seen in diabetic animals and humans. The elevated levels of D-glucose that occur in response to anesthesia provide an optimal system in which to measure any systemic hypoglycemic action of insulin-containing eye drops.
# Adult male Sprague-Dawley rats (250-350g) were fed ad libitum, and experiments were conducted between 10:00 a.m. and 3:00 p.m. Rats were anesthetized with a mixture of xylazine (7.5 mg/kg) and ketamine (50 mg/kg) given intraperitoneally (IP) and allowed to stabilize for 50-90 min before the administration of eye drops. […] Blood D-glucose values were measured by collecting a drop of blood from the tail vein at 5-10 min intervals throughout the experiment and applying the blood to glucometer strips (Chemstrip bG) according to directions provided with the instrument (Accu-Chek II, Boehringer Mannheim Diagnostics; Indianapolis, Ind.).
# (§1) Eye drops were instilled at time 0 using a plastic disposable pipette tip with the eyes held open, and the rat was kept in a horizontal position on a warming pad (37° C.) throughout the protocol. […] Octyl β-D-maltoside, decyl-β-D-maltoside, dodecyl-β-D-maltoside, tridecyl-β-D-maltoside and tetradecyl-β-D-maltoside were obtained from Anatrace, Inc. (Maumee, Ohio).
# rats = assay: Hyperglycemic effect of glucagon eye drops with surfactant; type: in vivo, rat; conditions: for blood D-glucose values after glucagon eye drops (in words): surfactant plus glucagon, rats previously treated with eye drops of same surfactant plus insulin; for Blood Glucose Concentration: glucagon eye drops with 0.5% surfactant agent added after 120 min (after insulin eye drops)
# Method: Glucagon absorption from the eye was measured in rats given eye drops containing various surfactants plus glucagon (30 μg) (Eli Lilly, Indianapolis, Ind.) by monitoring an elevation in blood D-glucose levels. […] Once again, paired animals that received eye drops containing the surfactant agents only, or glucagon only, could be compared to animals receiving eye drops with surfactant agents and glucagon. […] Additionally, the use of glucagon eyedrops to treat a hypoglycemic crisis is now possible provided that an appropriate surfactant agent is included in the eye drop formulation.
# rectal mucosa of rats = conditions: Murakami et al.; cited from earlier work
# [4] = system: normal rats with blood glucose elevated by xylazine/ketamine anesthesia; assay: Hypoglycemic effect of insulin nose drop with absorption enhancer; type: in vivo, rat; conditions: nose drop 0.2% insulin with 0.5% tetradecylmaltoside, after eye drops
# Method: Adult male Sprague-Dawley rats (250-350g) were fed ad libitum, and experiments were conducted between 10:00 a.m. and 3:00 p.m. Rats were anesthetized with a mixture of xylazine (7.5 mg/kg) and ketamine (50 mg/kg) given intraperitoneally (IP) and allowed to stabilize for 50-90 min before the administration of eye drops. Anesthesia of a normal rat with xylazine/ketamine produces an elevation in blood glucose values which provides an optimal state to determine the systemic hypoglycemic action of insulin-containing eye drops. Blood D-glucose values were measured by collecting a drop of blood from the tail vein at 5-10 min intervals throughout the experiment and applying the blood to glucometer strips (Chemstrip bG) according to directions provided with the instrument (Accu-Chek II, Boehringer Mannheim Diagnostics; Indianapolis, Ind.). Blood D-glucose values ranged from 200 to 400 mg/dl in anesthetized nondiabetic rats.
# as §1, with “Ohio). […]” for “Ohio).”
# [5] = 0.5% enhancer with 0.2% regular porcine insulin
# [6] = enhancer concentration not singled out (0.125-0.5%), with 0.2% regular porcine insulin
# [7] = 0.25% enhancer with 0.2% regular porcine insulin
compound,measurement,setting,value
"CCCCCCCCO[C@@H]1O[C@H](CO)[C@@H](O)[C@H](O)[C@H]1O [Octylglucoside, octyl β-D-glucoside]",cytolysis of intact mouse fibrosarcoma cells,[1],non-cytolytic
same,viability or morphology of monocytes or endothelial cells,[2],no effect
"CCCCCCCCCCO[C@@H]1O[C@H](CO)[C@@H](O[C@H]2O[C@H](CO)[C@@H](O)[C@H](O)[C@H]2O)[C@H](O)[C@H]1O [Decyl Maltoside, decyl-β-D-maltoside]","Effect as absorption enhancer on blood glucose, insulin eye drops (in words)",[3]; [5],prompt and sustained fall in blood glucose levels
same,"Effect as absorption enhancer on blood glucose, insulin eye drops (in words)",[3]; [6],less
same,blood D-glucose values after glucagon eye drops (in words),rats,significantly increased
"CCCCCCCCCCCCO[C@@H]1O[C@H](CO)[C@@H](O[C@H]2O[C@H](CO)[C@@H](O)[C@H](O)[C@H]2O)[C@H](O)[C@H]1O [Dodecyl Maltoside, dodecyl-β-D-maltoside]","Effect as absorption enhancer on blood glucose, insulin eye drops (in words)",[3]; 0.125% enhancer with 0.2% regular porcine insulin,ineffective
same,"Effect as absorption enhancer on blood glucose, insulin eye drops (in words)",[3]; [7],smaller and more transient effect
same,"Effect as absorption enhancer on blood glucose, insulin eye drops (in words)",[3]; 0.375% enhancer with 0.2% regular porcine insulin,equally effective
same,"Effect as absorption enhancer on blood glucose, insulin eye drops (in words)","[3]; 0.5% enhancer with 0.2% regular porcine insulin, listed as dodecyl-β-D-maltoside",prompt and sustained fall in blood glucose levels
same,"Effect as absorption enhancer on blood glucose, insulin eye drops (in words)","[3]; 0.5% enhancer with 0.2% regular porcine insulin, listed as dodecylmaltoside",equally effective
same,histological change to the rectal tissue,rectal mucosa of rats,without producing any apparent histological change
same,promoting absorption of dextrans and carboxyfluoroscein across the rectal mucosa,rectal mucosa of rats,effective
"CCCCCCCCCCCCCCO[C@@H]1O[C@H](CO)[C@@H](O[C@H]2O[C@H](CO)[C@@H](O)[C@H](O)[C@H]2O)[C@H](O)[C@H]1O [Tetradecyl Maltoside, tetradecyl-β-D-maltoside]","Effect as absorption enhancer on blood glucose, insulin eye drops (in words)","[3]; 0.125% enhancer with 0.2% regular porcine insulin, listed as tetradecyl maltoside",effective
same,"Effect as absorption enhancer on blood glucose, insulin eye drops (in words)","[3]; 0.125% enhancer with 0.2% regular porcine insulin, listed as tetradecylmaltoside",prompt and prominent drop in blood glucose levels
same,"Effect as absorption enhancer on blood glucose, insulin eye drops (in words)",[3]; [5],effective
same,blood glucose levels after nose drop (in words),[4],further decreased
"CCCCCCCCCCCCCOC1OC(CO)C(OC2OC(CO)C(O)C(O)C2O)C(O)C1O [Tridecyl Maltoside, tridecyl-β-D-maltoside]","Effect as absorption enhancer on blood glucose, insulin eye drops (in words)",[3]; [7],sustained for the two hour time course of the experiment
same,"Effect as absorption enhancer on blood glucose, insulin eye drops (in words)",[3]; [5],effective
same,Blood Glucose Concentration,"[3]; 0.5% surfactant agent, time -10 min, before insulin eye drops",307 mg/dL
same,Blood Glucose Concentration,"[3]; 0.5% surfactant agent, time -20 min, before insulin eye drops",255 mg/dL
same,"Effect as absorption enhancer on blood glucose, insulin eye drops (in words)",[3]; [6],dose-dependent effect
same,Blood Glucose Concentration,"[3]; insulin eye drops with 0.5% surfactant agent, time 0 min",323 mg/dL
same,Blood Glucose Concentration,"[3]; insulin eye drops with 0.5% surfactant agent, time 10 min",309 mg/dL
same,Blood Glucose Concentration,"[3]; insulin eye drops with 0.5% surfactant agent, time 20 min",217 mg/dL
same,Blood Glucose Concentration,"[3]; insulin eye drops with 0.5% surfactant agent, time 30 min",131 mg/dL
same,Blood Glucose Concentration,"[3]; insulin eye drops with 0.5% surfactant agent, time 40 min",100 mg/dL
same,Blood Glucose Concentration,"[3]; insulin eye drops with 0.5% surfactant agent, time 50 min",87 mg/dL
same,Blood Glucose Concentration,"[3]; insulin eye drops with 0.5% surfactant agent, time 60 min",107 mg/dL
same,Blood Glucose Concentration,"[3]; insulin eye drops with 0.5% surfactant agent, time 70 min",115 mg/dL
same,Blood Glucose Concentration,"[3]; insulin eye drops with 0.5% surfactant agent, time 80 min",79 mg/dL
same,Blood Glucose Concentration,"[3]; insulin eye drops with 0.5% surfactant agent, time 90 min",85 mg/dL
same,Blood Glucose Concentration,"[3]; insulin eye drops with 0.5% surfactant agent, time 100 min",76 mg/dL
same,Blood Glucose Concentration,"[3]; insulin eye drops with 0.5% surfactant agent, time 110 min",74 mg/dL
same,Blood Glucose Concentration,"[3]; insulin eye drops with 0.5% surfactant agent, time 120 min",75 mg/dL
same,Blood Glucose Concentration,rats; time 130 min,82 mg/dL
same,Blood Glucose Concentration,rats; time 140 min,121 mg/dL
same,Blood Glucose Concentration,rats; time 150 min,148 mg/dL
same,Blood Glucose Concentration,rats; time 160 min,173 mg/dL
same,Blood Glucose Concentration,rats; time 170 min,162 mg/dL
same,Blood Glucose Concentration,rats; time 180 min,162 mg/dL
same,Blood Glucose Concentration,rats; time 190 min,156 mg/dL
same,blood D-glucose values after glucagon eye drops (in words),rats,significantly increased
"CCCCCCCCO[C@@H]1O[C@H](CO)[C@@H](O[C@H]2O[C@H](CO)[C@@H](O)[C@H](O)[C@H]2O)[C@H](O)[C@H]1O [octylmaltoside, Octyl β-D-maltoside]","Effect as absorption enhancer on blood glucose, insulin eye drops (in words)",[3]; [6],no
"CCCCCCCOC1O[C@H](CO)[C@@H](O)[C@H](O)[C@H]1O (stereo partly drawn) [heptylglucoside, heptylglucopyranoside]","Effect as absorption enhancer on blood glucose, insulin eye drops (in words)",[3]; [5],ineffective
"CCCCCCOC1O[C@H](CO)[C@@H](O)[C@H](O)[C@H]1O (stereo partly drawn) [hexylglucoside, Hexylglucopyranoside]","Effect as absorption enhancer on blood glucose, insulin eye drops (in words)",[3]; [5],ineffective
decylsucrose,"Effect as absorption enhancer on blood glucose, insulin eye drops (in words)",[3]; [5],effective in reducing blood glucose levels
same,blood glucose levels,"[3]; insulin eye drops with 0.5% decylsucrose, time 0 min",313 mg/dL
same,blood glucose levels,"[3]; insulin eye drops with 0.5% decylsucrose, time 120 min",164 mg/dL
"CCCCCCCCCOC1O[C@H](CO)[C@@H](O)[C@H](O)[C@H]1O (stereo partly drawn) [nonylglucoside, nonylglucopyranoside]","Effect as absorption enhancer on blood glucose, insulin eye drops (in words)",[3]; [5],effectively stimulated insulin absorption
same,blood glucose levels,"[3]; insulin eye drops with 0.5% nonylglucoside, initial value (from)",297 mg/dL
same,blood glucose levels,"[3]; insulin eye drops with 0.5% nonylglucoside, reduced value (to)",150 mg/dL
dodecylsucrose [Dodecyl Sucrose],blood glucose levels,"[3]; insulin eye drops with 0.125% dodecylsucrose, time 0 min",335 mg/dL
same,blood glucose levels,"[3]; insulin eye drops with 0.125% dodecylsucrose, time 120 min",150 mg/dL
same,blood D-glucose values after glucagon eye drops (in words),rats,significantly increased
